According to a melting point compilation (Tetko et al.; mined from patent text by program, amines drawn as free bases though some values may be those of a salt):
Residues, ends and D or L forms follow the SMILES beside them. *: point of attachment. Boc = CC(C)(C)OC(=O)*

Row | melting point [°C] | Structure (SMILES)
1 | 123 to 124 | CCOC(=O)CN1CCN(C2=Nc3ccccc3Oc3ccc(Cl)cc32)CC1
2 | 144 to 145 | O=[N+]([O-])c1ccc(CP2(=O)OCCCO2)cc1
3 | 283 to 285 | COC(=O)[C@H]1Cc2c(sc3ccccc23)[C@@H](c2cccc(O)c2)N1
4 | 94 to 95 | CC(C)c1c(OCCNC(=O)OC(C)(C)C)noc1-c1cccs1
5 | 197 to 200 | NC(=O)NS(=O)(=O)c1cccc(Cl)c1Cl
6 | 58 | O=C(O)CCSSc1ccccc1
7 | 120 to 122 | CCNC(=O)NCC(CO)c1cccc2ccc(OC)cc12 (configuration not stated)
8 | 159 | CC(C)c1nc(O)cc(=O)n1C
9 | 136 to 138 | C(=CCN(C1CCCCC1)C1CCCCC1)CN(C1CCCCC1)C1CCCCC1
10 | 160 to 162 | CC1(C)CCC(C)(C)c2cc(-c3cc(-c4ccc(C(=O)O)nc4)ccc3-c3ccccc3)ccc21
11 | 230 | CNC(=O)N1CCc2[nH]cnc2C1c1cccs1 (configuration not stated)
12 | 140 to 142 | O=C(Nc1ccc(Cl)c(C(F)(F)F)c1)N1COc2cc(Oc3ccnc(Cl)n3)ccc21
13 | 197 to 200 | N#Cc1c(Sc2ncc([N+](=O)[O-])s2)nsc1Sc1ncc([N+](=O)[O-])s1
14 | 80 to 82 | CCOC(=O)C=CN1C(C)(C)CC(OC(=O)CCl)CC1(C)C
15 | 89.5 to 90 | COc1ccc(-n2nnnc2C(F)(F)F)c(OC)c1CBr
16 | 218 to 220 | O=C1CCC(N2Cc3c(OCc4cc(CN5CCOCC5)on4)cccc3C2=O)C(=O)N1 (configuration not stated)
17 | 190 to 191 | c1snc2c1Sc1csnc1S2
18 | 145 to 150 | C#Cc1ccc(-c2ccc(Br)cc2)cc1
19 | 118 to 122 | O=[N+]([O-])c1ccc(Oc2ccc(C34CC5CC(C3)CC(c3ccc(Oc6ccc([N+](=O)[O-])c(O)c6)cc3)(C5)C4)cc2)cc1O
20 | 180 | O=C1NC(=Cc2cccc(Cl)c2Cl)C(=O)C1=NO
21 | 71 to 73 | Cc1ccc(F)c([Si](C)(C)C)c1C#N
22 | 136 | O=C(O)CCCC(=O)c1cc(-c2ccccc2)nc2ccccc12
23 | 91 to 91.5 | O=[N+]([O-])c1cccc(CO)c1I
24 | 133 to 134 | FC(F)(F)c1cccc(Nc2nc(NCc3ccco3)nc(-c3ccccc3)n2)c1
25 | 203 to 206 | COc1ccc(CN[C@@H](C(=O)O)[C@@H](O)[C@H](Cc2ccccc2)NC(=O)OC(C)(C)C)cc1

Row | melting point [°C] | Structure (SMILES)
26 | 144 to 146 | O=Cc1ccc(-c2cccc3cncn23)cc1
27 | 103 to 104 | FC(F)(F)c1cccc(-c2ccnc3ccnn23)c1
28 | 132 | CCCCN1C(=O)NC(CC(=O)O)C1=O (configuration not stated)
29 | 88 to 89 | COc1cc(C)c(C(=O)c2ccccc2)c(OC)c1OC
30 | 252 to 254 | COC(=O)C(CCSC)NC(=O)C(CC(C)C)NC(=O)CNC(=O)C(NC(=O)C(Cc1ccccc1)NC(=O)C(C)NC(=O)OC(C)(C)C)C(C)C (configuration not stated) (Boc-AFVGLM-OMe; configuration not given here)
31 | 130 to 134 | Cc1ccc2c(n1)CCCC2(O)c1ccccc1 (configuration not stated)
32 | 171 to 173 | CCC(CNC(=O)OC(C)(C)C)n1cnc2c(N)nc3ccccc3c21 (configuration not stated)
33 | 142 to 143 | Nc1cc(C(F)(F)F)ccc1S(=O)(=O)c1ccccc1
34 | 138 to 139 | C[C@H](NC(=O)OCc1ccccc1)C(=O)N1CCC[C@H]1C(=O)Nc1ccccc1
35 | 56 to 57.5 | CCC(=NO)c1ccc(Cl)cc1
36 | 55 to 56 | Cc1oc(C)c(C(=O)OC2CC(C)(C)N(C)C(C)(C)C2)c1C
37 | 203 | CS(=O)(=O)OC1CCN(c2ccc(N)cc2)C1 (configuration not stated)
38 | 145 to 150 | CCOC(=O)c1ccc(Cl)nn1
39 | 61 to 62 | COc1ccc(F)cc1C(C)(C)CC(O)(CN1CC(C)NC(C)C1)C(F)(F)F (configuration not stated)
40 | 209 to 210 | CCCCOc1c(N(C)C(=O)OC(C)(C)C)n(CC2CC2)c(=O)c2ccc(OCC(N)=O)cc12
41 | 97 to 100 | COc1ccc(-c2cc(=Nc3c(C)cc(C)cc3C)n(C)c(=NCc3ccccc3)n2C)cc1OC
42 | 65 to 66 | OCC=C[C@@H]1O[C@H]1C#CC#CC#Cc1ccccc1 (relative stereo)
43 | 102 | CCCNC(=O)Nc1ccccc1C(=O)OC
44 | 188 to 189 | CN(c1cccc2cc(C3=NCC(CN4CCS(=O)(=O)CC4)S3)[nH]c12)S(=O)(=O)c1ccccn1 (configuration not stated)
45 | 171 to 172 | Cc1cc(SC(Sc2cc(C)c(O)c(C(C)(C)C)c2)Sc2cc(C)c(O)c(C(C)(C)C)c2)cc(C(C)(C)C)c1O
46 | 120 | CCCN1CCCC(c2ccc(OC)c3c2CC(=O)N3)C1 (configuration not stated)
47 | 105 to 108 | CCNC(=O)c1sc(Cl)cc1[Si](C)(C)C
48 | 67 to 68 | CC(C)c1nn(-c2ccc(C(F)(F)F)cn2)cc1CCCCO
49 | 174 to 176 | CC(C)=CCNC(=O)Cn1ccnc1[N+](=O)[O-]
50 | 159 to 161 | CC(=O)c1cnccc1-c1c(-c2ccccc2)nn2ccccc12

Row | melting point [°C] | Structure (SMILES)
51 | 190 to 191 | CC(F)c1nc[nH]c(=O)c1Cl (configuration not stated)
52 | 121 to 123 | CN(c1cccc2cc(C3=NCC(CC(=O)O)S3)[nH]c12)S(=O)(=O)c1nccs1 (configuration not stated)
53 | 257 to 260 | O=C(O)Cc1ccc(NC(=O)c2ccccc2SSc2ccccc2C(=O)Nc2ccc(CC(=O)O)cc2)cc1
54 | 51 to 54 | Cc1ccc(S(=O)(=O)OCCC2Cc3ccccc3O2)cc1 (configuration not stated)
55 | 100 to 104 | O=C(c1ccccc1)N1CCN(CCCN2C(=O)c3ccccc3C2=O)CC1
56 | 87 to 90.5 | CNC(=O)C(C)(C)n1cc(C)c(-c2ccccc2Cl)n1
57 | 2 | CCCCCCC#Cc1csc(C=O)c1
58 | 226 to 228 | CC1(C)Oc2ccc(C(=O)CCC(=O)O)cc2NC1=O
59 | 239 to 241 | CC(NNC=NN)C(=O)O (configuration not stated)
60 | 110 to 113 | COCCOc1ccc(CCCOC(=O)NS(=O)(=O)NCCc2ccccc2)c(Oc2ncc(C(F)(F)F)cc2Cl)c1
61 | 204 to 205 | CC(C)(C)NC(=O)NC(C)(C)C#N
62 | 159 to 162 | Nc1ncc(CCCCc2ccc(Cl)cc2)c(N)n1
63 | 176 | Cc1cc(Cl)cc(C(=O)Nc2nc(C)cs2)n1
64 | 152 to 156 | CON=C1C=C(NC(=O)N(N)CCO)C(Cl)=C(C)C1Cl (configuration not stated)
65 | 87 to 88 | COc1ccc(OC)c2c1C(=O)C=C(SCCCCCCO)C2=O
66 | 78 to 80 | CCOC(=O)COc1ccc(N)cc1C(F)(F)F
67 | 116 | CCCCc1ccc(NC(=O)CCC)c(N=C(NC(=O)OC)SC)c1
68 | 153 to 159 | CCCCCCCCON1C(C)(C)CC(NC(=O)CCc2cc(-n3nc4ccccc4n3)c(O)c(C(C)(C)C)c2)CC1(C)C
69 | 205 to 206 | COc1ccc(CNC(=O)c2[nH]c3ccc(Cl)cc3c2S(=O)(=O)c2ccccc2)cc1
70 | 134 to 136 | O=C(Nc1nccs1)C(CC1CCCC1)c1ccc([N+](=O)[O-])cc1 (configuration not stated)
71 | 76 to 78 | CCC1(CC)c2ccc(C)cc2C(CC)(CC)N1OC(C)=O
72 | 150 to 151 | CCc1cccc(-c2nc(=O)c3ccccc3s2)n1
73 | 93 to 94 | C=CCCC(=O)Nc1ccccc1
74 | 78 to 80 | CCOC(=O)C1=C(C)NC(CSC(=O)c2ccc(N)cc2)=C(C(=O)OCC)C1c1cccc([N+](=O)[O-])c1 (configuration not stated)
75 | 133 | CC(=O)OC1CSC(Oc2ccc(-c3ccco3)nc2)C(OC(C)=O)C1OC(C)=O (configuration not stated)

Row | melting point [°C] | Structure (SMILES)
76 | 45 | C1=NCCN1c1ccccc1
77 | 265 | C#CCOc1cc(OCC=C)ccc1-c1nc2cnncc2[nH]1
78 | 210 to 212 | COc1ccc(/C=N/Nc2cc(=O)[nH]c3cc(Cl)ccc23)cc1OC1CCCC1
79 | 174 to 175 | CCC(=O)Nc1cccc(NC(=O)C(C)C)c1
80 | 144 | O=C1Cc2c(OCc3ccccc3)cc(OCc3ccccc3)cc2O[C@@H]1c1ccc(OCc2ccccc2)c(OCc2ccccc2)c1
81 | 215 to 218 | CN1CCN(Cc2cnc(Nc3cc(-c4cccc(-n5ncc6cc(C(C)(C)C)cc(F)c6c5=O)c4CO)nn(C)c3=O)cn2)CC1
82 | 115 to 118 | O=C1c2cccc3cccc(c23)C(=O)N1CCCO
83 | 75 to 80 | COC(=O)On1c(C(=O)OC)cc2c(C)ccc(C)c21
84 | 110 | COc1cc(Nc2nccc(S(=O)(=O)c3ccccc3)n2)cc(OC)c1OC
85 | 163 to 164 | Cc1ccc(N(c2ccccc2)c2ccc(-c3ccc(N(c4ccccc4)c4ccc(C)cc4)cc3)cc2)cc1
86 | 134 to 135 | Cc1ccc(S(=O)(=O)N[C@@H](C)C(=O)O)cc1
87 | 194 to 195 | Cc1c(C)c2c(c(C)c1NC(=O)CC(C)(C)C)C(C)(c1ccc(C(C)C)cc1)CO2 (configuration not stated)
88 | 140 to 141 | CN(C)C=Nc1c(Cl)cc(N=Cc2ccc(N(C)C)c(Br)c2)cc1Cl
89 | 57 to 59 | Cc1c(Cl)c(Oc2ncc(C(F)(F)F)cc2Cl)nn1C(=O)NC(C)C
90 | 148 to 150 | O=c1cc(-c2ccccc2)oc(N2CCOCC2)c1
91 | 151 to 152 | COc1cc2c(cn1)CC(CC(=O)O)C=C2 (configuration not stated)
92 | 138 | COc1c2nc3ccccc3sc-2c(C)c(=O)c1OC
93 | 32 to 34 | COC(=O)[C@H](O)[C@@H](O)C(C)C
94 | 154 to 156 | COc1cc2c(cc1OC)C(=CN1CCN(C)CC1)C(=O)N2
95 | 125 to 129 | CC(=O)CC(=O)C=Cc1ccc(O)cc1Cl
96 | 107 to 109 | COC(=O)c1cc(OC)ccc1N(CC#N)c1ccccc1
97 | 146 to 147 | CC(C)(C)c1ccc(CC(=O)CCCC2CCCCC2)cc1NC(=O)CC1c2ccccc2Oc2ccccc21
98 | 109 to 111 | O=C(Nc1ccc2c(c1)CSCC2)OCc1ccccc1
99 | 195 to 197 | O=C(O)Cn1cccc(NC(=O)CCc2ccccc2)c1=O
100 | 132 to 134 | COc1ccc(F)cc1C(C)(C)CC(O)(CN1CC(=O)N(C)c2ccccc21)C(F)(F)F (configuration not stated)

Row | Structure (SMILES) | melting point [°C]
101 | CC(C)(C)CC(C)(C)c1cc(-n2nc3ccc(S(=O)(=O)c4ccccc4)cc3n2)c(O)c(C(C)(C)c2ccccc2)c1 | 170 to 171
102 | COC(=O)c1ccc2cc(-c3ccc4c(c3)C(C)(C)CCC4(C)C)n(C)c2c1 | 156
